In brackets after ≈: the same amount, converted by molar mass.
What was measured:
Format in all cases: functional
[1] = test system: Micrococcus luteus; test: Antimicrobial activity against Sarcina lutea after 48 hrs by paper disk assay
[2] = test system: Bacillus subtilis; test: Antimicrobial activity against Bacillus subtilis after 48 hrs by paper disk assay
[3] = test system: Staphylococcus aureus; test: Antimicrobial activity against Staphylococcus aureus after 48 hrs by paper disk assay
[4] = test system: Helminthosporium; test: Antimicrobial activity against Helminthosporium sativum after 96 hrs by paper disk assay

MIC [1] [µg/mL] | MIC [2] [µg/mL] | MIC [3] [µg/mL] | Structure (SMILES) | MIC [4] [µg/mL]
0.01 (≈ 0.0286 µM) | 0.05 (≈ 0.143 µM) |  | CC1(C)S[C@@H]2[C@H](NC(=O)[C@H](N)c3ccccc3)C(=O)N2[C@H]1C(=O)O [AMPICILLIN] | 
50 (≈ 95.3 µM) | 25 (≈ 47.7 µM) | 50 (≈ 95.3 µM) | COc1c(C)c(OC(=O)c2c(C)cc(O)cc2O)c(C)c(C(=O)Oc2cc(O)c(C(=O)O)c(C)c2C)c1C [COLLETOTRIC ACID] | 50 (≈ 95.3 µM)
 |  |  | CC(C)(C)C(=O)C(Oc1ccc(Cl)cc1)n1cncn1 (configuration not stated) [TRIADIMEFON] | 20 (≈ 68.1 µM)
